Patent US6476252B1, “Flavorant compositions” (Givaudan Roure (International) SA, priority 1997, dated 2002)

What was measured:
[1] = S. Mitsui et al., Chem. Pharm. Bull. (1976); cited from earlier work
Epstein-Barr virus = settings: A. Kondo et al., Biosci. Biotech. Biochem. (1993); cited from earlier work
xanthin oxidase = settings: T. Noro et al., Chem. Pharm. Bull. (1988); cited from earlier work
fungi = settings: A. M. Janssen et al., Planta Medica 1985; cited from earlier work
oral cavity = assay: Expert panel evaluation in foods, beverages and consumer healthcare products; format: in vivo, human; settings: for character of mayonnaise base / character of sour cream / character of vegetable dip: 500 ppm compound; for character of toothpaste base: peppermint flavored toothpaste base; for character of sour cream: regular fat sour cream; for character of vegetable dip: vegetable soup mix with regular fat sour cream
Experimental: Mouthwash base was prepared by mixing 0.08 parts mouthwash flavor (commercially available from Givaudan Roure Flavors Ltd.), 0.5 parts Pluronic F-127, 0.5 parts polysorbate 20, 0.35 parts sodium lauryl sulfate, 5 parts glycerine, 0.015 parts sodium saccharin and 93.555 parts water. […] Toothpaste base (Opaque 13/02-5F) was flavored with peppermint flavor (Givaudan Roure peppermint flavor 10570-34) at 0.5% by weight. […] Mayonnaise base was prepared by mixing 59.8 parts whole egg, 24 parts vinegar (white, 5% acidity), 1.3 parts mustard, 2 parts sugar, 1 part salt and 219 parts vegetable oil. […] An onion dip was prepared by mixing a commercial package of onion soup mix (Lipton) with plain, regular fat sour cream and 1000 ppm of compound 9 as described and prepared according to example 9. […] 2.5 parts Maltrin M-10 (commercially available) was mixed with 0.05 parts pizza flavor (SNE Pizza Flavor 810841). 50 parts potato chips ([…]) were placed on a paper plate then microwaved for 30-60 seconds until surface oil glistened. […] A chewing gum was prepared according to methods known to those skilled in the art.

tumor = settings: H. Itokawa et al., Planta Medica (1987); cited from earlier work

Row | SMILES | character of mayonnaise base (oral cavity) | sensation imparted by mouthwash base (oral cavity; 100 ppm compound) | character of toothpaste base (oral cavity; 100 ppm compound) | character of sour cream (oral cavity) | character of vegetable dip (oral cavity) | further results
1 | C=CC(OC(C)=O)c1ccc(OC(C)=O)cc1 (racemic) [Compound 1, (rac)-acetic acid 1-(4-acetoxy-phenyl)-allyl ester] | warm/hot, spicy and pungent character | warm/hot, spicy and pungent sensation | warm/hot, spicy and pungent character | warm/hot, spicy and pungent character without a lingering effect | warm/hot, peppery and pungent character without any lingering effect | anti-ulcer activity [1]: anti-ulcer activity; inhibition of tumor promoter-induced Epstein-Barr virus activation (Epstein-Barr virus): potent inhibitor; inhibition of xanthin oxidase (xanthin oxidase): inhibit xanthin oxidase; anti-fungal activity (fungi): anti-fungal activity; anti-tumor activity (tumor): anti-tumor activity
2 | C=CC(OC(C)=O)c1ccc(OC(C)=O)c(OC)c1 (racemic) [Compound 2, (rac)-acetic acid 1-(4-acetoxy-3-methoxphenyl)-allyl ester] | – | – | – | – | – | inhibition of xanthin oxidase (xanthin oxidase): inhibit xanthin oxidase; anti-fungal activity (fungi): anti-fungal activity; character of orange flavored chewing gum (oral cavity; chewing gum, 1 g compound in the batch): warm/hot, peppery and pungent character, again without any lingering effect; anti-tumor activity (tumor): anti-tumor activity
3 | C=CC(OC(=O)CC)c1ccc(OC(=O)CC)c(OC)c1 (racemic) [Compound 3, (rac)-propionic acid 1-(4-propionoxy-3-methoxyphenyl)-allyl ester] | – | warm/hot, spicy and pungent sensation | – | – | – | –
4 | C=CC(OC(=O)CC)c1ccc(OC(=O)CC)cc1 (racemic) [Compound 4, (rac)-propionic acid 1-(4-propionoxy-phenyl)-allyl ester] | – | warm/hot, spicy and pungent sensation | – | – | – | –
5 | C=CC(OC(=O)C(C)C)c1ccc(OC(=O)C(C)C)cc1 (racemic) [Compound 5, (rac)-isobutyric acid 1-(4-isobutyryloxy-phenyl)-allyl ester] | – | warm/hot, spicy and pungent sensation | – | – | – | –
6 | CCC(OC(C)=O)c1ccc(OC(C)=O)cc1 (racemic) [Compound 6, (rac-)-acetic acid 1-(4-acetoxy-phenyl)-propyl ester] | warm/hot, spicy and pungent character | warm/hot, spicy and pungent sensation | warm/hot, spicy and pungent character | warm/hot, spicy and pungent character without a lingering effect | warm/hot, peppery and pungent character without any lingering effect | character of pizza snack (potato chips) (oral cavity; potato chips with pizza flavor, dusted with 1000 ppm compound): warm/hot, peppery and pungent character
7 | CCC(OC(C)=O)c1ccc(OC(C)=O)c(OC)c1 (racemic) [Compound 7, (rac)-acetic acid 1-(4-acetoxy-3-methoxy-phenyl)-propyl ester] | warm/hot, spicy and pungent character | warm/hot, spicy and pungent sensation | warm/hot, spicy and pungent character | warm/hot, spicy and pungent character without a lingering effect | warm/hot, peppery and pungent character without any lingering effect | flavor of cordial base (oral cavity; 50 Proof cordial base with cinnamon flavor 0.2% by weight, 100 ppm compound): enhanced warm /hot, pungent flavor
8 | C=CCC(OC(C)=O)c1ccc(OC(C)=O)cc1 (racemic) [Compound 9, (rac)-acetic acid 1-(4-acetoxyphenyl)-3-butenyl ester] | warm/hot, spicy and pungent character | warm/hot, spicy and pungent sensation | warm/hot, spicy and pungent character | warm/hot, spicy and pungent character without a lingering effect | warm/hot, peppery and pungent character without any lingering effect | character of onion dip (oral cavity; onion soup mix with regular fat sour cream, 1000 ppm compound): warm/hot, peppery and pungent character without a lingering effect
